Activity calls are given as the source filed them. The calls are words filed in the database; no cut-off is given here.
What was measured:
[1] = Antiproliferative activity against human ALL5 cells assessed as reduction in cell viability incubated for 120 hrs by MTT assay; assay type: functional, cell-based; details: ALL5, 120 h
A549 = experiment: Antiproliferative activity against human A549 cells assessed as reduction in cell viability incubated for 120 hrs by MTT assay; assay type: functional, cell-based; details: A549, 120 h
BALB/3T3 = experiment: Antiproliferative activity against mouse BALB/3T3 cells assessed as reduction in cell viability incubated for 120 hrs by MTT assay; assay type: cell-based; details: BALB/3T3, 120 h
[2] = Cell cycle arrest in human ALL5 cells assessed as accumulation in G2 phase at 5 times of antiproliferative IC50 incubated for 24 hrs by propidium iodide based flow cytometry (reference value: 10.6 %); assay type: functional
[3] = Cell cycle arrest in human ALL5 cells assessed as accumulation in G2 phase at 5 times of antiproliferative IC50 incubated for 48 hrs by propidium iodide based flow cytometry (reference value: 11.2 %); assay type: functional
[4] = Cell cycle arrest in human ALL5 cells assessed as accumulation in G2 phase at 5 times of antiproliferative IC50 incubated for 72 hrs by propidium iodide based flow cytometry (reference value: 11.3 %); assay type: functional
[5] = Cell cycle arrest in human ALL5 cells assessed as accumulation in G1 phase at 5 times of antiproliferative IC50 incubated for 24 hrs by propidium iodide based flow cytometry (reference value: 68.1 %); assay type: functional
[6] = Cell cycle arrest in human ALL5 cells assessed as accumulation in G1 phase at 5 times of antiproliferative IC50 incubated for 48 hrs by propidium iodide based flow cytometry (reference value: 67.4 %); assay type: functional
[7] = Cell cycle arrest in human ALL5 cells assessed as accumulation in G1 phase at 5 times of antiproliferative IC50 incubated for 72 hrs by propidium iodide based flow cytometry (reference value: 59.7 %); assay type: functional
[8] = Cell cycle arrest in human ALL5 cells assessed as accumulation in subG1 phase at 5 times of antiproliferative IC50 incubated for 24 hrs by propidium iodide based flow cytometry (reference value: 10.5 %); assay type: functional
[9] = Cell cycle arrest in human ALL5 cells assessed as accumulation in subG1 phase at 5 times of antiproliferative IC50 incubated for 48 hrs by propidium iodide based flow cytometry (reference value: 11 %); assay type: functional
[10] = Cell cycle arrest in human ALL5 cells assessed as accumulation in subG1 phase at 5 times of antiproliferative IC50 incubated for 72 hrs by propidium iodide based flow cytometry (reference value: 15.5 %); assay type: functional
MCF7 [11] = experiment: Cell cycle arrest in human MCF7 cells assessed as accumulation in G2 phase at 5 times of antiproliferative IC50 incubated for 24 hrs by propidium iodide based flow cytometry (reference value: 22.4 %); assay type: functional
MCF7 [12] = experiment: Cell cycle arrest in human MCF7 cells assessed as accumulation in G2 phase at 5 times of antiproliferative IC50 incubated for 48 hrs by propidium iodide based flow cytometry (reference value: 16 %); assay type: functional
MCF7 [13] = experiment: Cell cycle arrest in human MCF7 cells assessed as accumulation in G2 phase at 5 times of antiproliferative IC50 incubated for 72 hrs by propidium iodide based flow cytometry (reference value: 18.6 %); assay type: functional
MCF7 [14] = experiment: Cell cycle arrest in human MCF7 cells assessed as accumulation in G1 phase at 5 times of antiproliferative IC50 incubated for 24 hrs by propidium iodide based flow cytometry (reference value: 49.9 %); assay type: functional
MCF7 [15] = experiment: Cell cycle arrest in human MCF7 cells assessed as accumulation in G1 phase at 5 times of antiproliferative IC50 incubated for 48 hrs by propidium iodide based flow cytometry (reference value: 40.8 %); assay type: functional
MCF7 [16] = experiment: Cell cycle arrest in human MCF7 cells assessed as accumulation in G1 phase at 5 times of antiproliferative IC50 incubated for 72 hrs by propidium iodide based flow cytometry (reference value: 58 %); assay type: functional
MCF7 [17] = experiment: Cell cycle arrest in human MCF7 cells assessed as accumulation in subG1 phase at 5 times of antiproliferative IC50 incubated for 24 hrs by propidium iodide based flow cytometry (reference value: 7.79 %); assay type: functional
MCF7 [18] = experiment: Cell cycle arrest in human MCF7 cells assessed as accumulation in subG1 phase at 5 times of antiproliferative IC50 incubated for 48 hrs by propidium iodide based flow cytometry (reference value: 9.19 %); assay type: functional
MCF7 [19] = experiment: Cell cycle arrest in human MCF7 cells assessed as accumulation in subG1 phase at 5 times of antiproliferative IC50 incubated for 72 hrs by propidium iodide based flow cytometry (reference value: 3.59 %); assay type: functional
MCF7 [20] = experiment: Cell cycle arrest in human MCF7 cells assessed as accumulation in S phase at 5 times of antiproliferative IC50 incubated for 24 hrs by propidium iodide based flow cytometry (reference value: 19.9 %); assay type: functional
MCF7 [21] = experiment: Cell cycle arrest in human MCF7 cells assessed as accumulation in S phase at 5 times of antiproliferative IC50 incubated for 48 hrs by propidium iodide based flow cytometry (reference value: 34 %); assay type: functional
MCF7 [22] = experiment: Cell cycle arrest in human MCF7 cells assessed as accumulation in S phase at 5 times of antiproliferative IC50 incubated for 72 hrs by propidium iodide based flow cytometry (reference value: 19.8 %); assay type: functional
[23] = Cell cycle arrest in human ALL5 cells assessed as accumulation in S phase at 5 times of antiproliferative IC50 incubated for 24 hrs by propidium iodide based flow cytometry (reference value: […]); assay type: functional
[24] = Cell cycle arrest in human ALL5 cells assessed as accumulation in S phase at 5 times of antiproliferative IC50 incubated for 48 hrs by propidium iodide based flow cytometry (reference value: 10.3 %); assay type: functional
[25] = Cell cycle arrest in human ALL5 cells assessed as accumulation in S phase at 5 times of antiproliferative IC50 incubated for 72 hrs by propidium iodide based flow cytometry (reference value: 13.5 %); assay type: functional
Homo sapiens [26] = species on record: Homo sapiens; experiment: Induction of apoptosis in human ALL5 cells assessed as reduction in 116 kDa PARP expression at 0.2 uM incubated for 24 and 48 hrs by immunoblot analysis; assay type: functional, cell-based
Homo sapiens [27] = species on record: Homo sapiens; experiment: Induction of apoptosis in human ALL5 cells assessed as increase in 85 kDa PARP expression at 0.2 uM incubated for 24 and 48 hrs by immunoblot analysis; assay type: functional, cell-based
Homo sapiens [28] = species on record: Homo sapiens; experiment: Induction of apoptosis in human ALL5 cells assessed as reduction in 116 kDa PARP expression at 43 uM incubated for 24 and 48 hrs by immunoblot analysis; assay type: functional, cell-based
Homo sapiens [29] = species on record: Homo sapiens; experiment: Induction of apoptosis in human ALL5 cells assessed as increase in 85 kDa PARP expression at 43 uM incubated for 48 hrs by immunoblot analysis; assay type: functional, cell-based
Homo sapiens [30] = species on record: Homo sapiens; experiment: Induction of cell cycle arrest in human ALL5 cells assessed as increase in 4 N DNA at 5 times of antiproliferative IC50 incubated for 24 hrs by propidium iodide based flow cytometry; assay type: functional
Homo sapiens [31] = species on record: Homo sapiens; experiment: Induction of cell cycle arrest in human ALL5 cells assessed as increase in 4 N DNA at 5 times of antiproliferative IC50 incubated for 48 hrs by propidium iodide based flow cytometry; assay type: functional
Homo sapiens [32] = species on record: Homo sapiens; experiment: Induction of cell death in human ALL5 cells assessed as decrease in 4 N DNA at 5 times of antiproliferative IC50 incubated for 72 hrs by propidium iodide based flow cytometry; assay type: functional

SMILES | IC50 [1] | Activity [2] | Activity [3] | Activity [4] | Activity [5] | Activity [6] | Activity [7] | Activity [8] | Activity [9] | Activity [10] | Activity (MCF7 [11]) | Activity (MCF7 [12]) | Activity (MCF7 [13]) | Activity (MCF7 [14]) | Activity (MCF7 [15]) | Activity (MCF7 [16]) | Activity (MCF7 [17]) | Activity (MCF7 [18]) | Activity (MCF7 [19]) | Activity (MCF7 [20]) | further results
COc1cccc2c1C(=O)c1c(O)c3c(c(O)c1C2=O)C[C@@](O)(C(=O)CO)C[C@@H]3O[C@H]1C[C@H](N)[C@H](O)[C@H](C)O1 [DOXORUBICIN] | 39.1 nM | 22% | 5.52% | 9.99% | 66.3% | 67.6% | 36.5% | 1.55% | 21% | 36.6% | 30.5% | 32.4% | 32.5% | 47.3% | 43.3% | 35.1% | 5.28% | 6.08% | 18.3% | 16.9% | IC50 (A549): 258 nM; IC50 (BALB/3T3): 166 nM; Activity (MCF7 [21]): 18.3%; Activity (MCF7 [22]): 14.1%; Activity [23]: 7.16%; Activity [24]: 2.77%; Activity [25]: 16.9%; Activity (Homo sapiens [26]): Active; Activity (Homo sapiens [27]): Active
COc1cc2c(c(OC)c1OC)-c1ccc(OC)c(=O)cc1[C@@H](NC(C)=O)CC2 [COLCHICINE] | 8.6 nM | 14.4% | 22.3% | 9.05% | 54% | 33.2% | 21.7% | 19.7% | 27.4% | 52.1% | 72.2% | 68.3% | 64% | 9.33% | 14.5% | 16% | 5.51% | 9.33% | 12.6% | 13% | Activity (MCF7 [21]): 7.86%; Activity (MCF7 [22]): 7.4%; Activity [23]: 12%; Activity [24]: 17.1%; Activity [25]: 17.1%; Activity (Homo sapiens [28]): Active; Activity (Homo sapiens [29]): Active; Activity (Homo sapiens [30]): Active; Activity (Homo sapiens [31]): Active; Activity (Homo sapiens [32]): Active
